Assay results: a melting point compilation (Tetko et al.; mined from patent text by program, amines drawn as free bases though some values may be those of a salt)

Row | SMILES | melting point
1 | CC(C)(C)c1cc(-c2nc(Br)no2)cc(C(C)(C)C)c1O | 113 to 115 °C
2 | CCCc1c(OCCCCCC(=O)c2cc(OC)c(OC)c(C(C)C)c2)ccc(C(=O)O)c1O | 113 to 115 °C
3 | CC(C)(C)[Si](C)(C)Oc1ccc2c3c1OC1C(C4OCCO4)CCC4(O)C(C2)N(CC2CC2)CCC314 (stereo unspecified) | 108 to 109 °C
4 | Cc1cccc(C)c1OCC1CN=C(N)O1 (stereo unspecified) | 114 °C
5 | Cc1noc(NS(=O)(=O)c2ccc(S(=O)(=O)c3ccccc3)s2)c1Br | 139 to 142 °C
6 | CC(C)(C)OC(=O)N1CCC(NC(=O)Nc2ccc(OC(F)(F)F)cc2)CC1 | 160 to 162 °C
7 | CCOC1C(=O)NC(=O)N1CCCc1ccccc1 (stereo unspecified) | 64 °C
8 | O=C(Nc1ccc(C(=O)N2Cc3cccn3Cc3ccccc32)c(Cl)c1)c1ccccc1-c1cccs1 | 132 to 136 °C
9 | COc1ccc2cc(OCc3ccccc3)c(C(=O)OCc3ccccc3)cc2c1 | 96 to 98 °C
10 | CC(Cc1cccc([N+](=O)[O-])c1)NC=O (stereo unspecified) | 99 to 100 °C
11 | CC(C)c1cccc(CCCn2ccnc2)c1NC(=O)CC1c2ccccc2Oc2ccccc21 | 194 to 195 °C
12 | O=C(CS)NCC(=O)NCCS | 128 to 130 °C
13 | CC(=O)c1ccccc1NC(C)c1c(Cl)cccc1Cl (stereo unspecified) | 123 °C
14 | O=C1c2ccccc2C(=O)N1CSc1cccnc1 | 123 to 124 °C
15 | O=C(CC(C(=O)O)c1ccccc1)Nc1cccc(/C=C/c2nc(C3CCC3)cs2)c1 (stereo unspecified) | 202 to 203 °C
16 | CNS(=O)(=O)c1c(C)cc(OC)cc1C | 131 °C
17 | Cc1ccc(C(=O)CC(C)C(=O)O)cc1 (stereo unspecified) | 168 to 170 °C
18 | O=S1(=O)CCON=C1c1nc2ccccc2s1 | 226 to 227 °C
19 | Cc1cc2c(s1)c(=O)c(C(N)=O)cn2C | 328 to 330 °C
20 | N#CC1(Nc2ccccc2)CCCCC1 | 67 to 69 °C
21 | O=C(Nc1ccccc1OCc1ccccc1)c1nnnn1Cc1ccccc1 | 140 to 142 °C
22 | CCCN1CC(C)C=C2c3cccc4c3C(CN4)CC21 (stereo unspecified) | 135 to 137 °C
23 | O=Cc1c(-c2cccnc2)[nH]c2ccccc12 | 148 to 150 °C
24 | O=C1N(N2CCOCC2)c2ccccc2C1(Cc1ccccc1)c1ccccc1 (stereo unspecified) | 159 to 161 °C

Row | SMILES | melting point
25 | O=c1cnn(-c2ccc(C(c3ccc(Cl)cc3)c3nc(-c4ccccc4)cs3)c(Cl)c2)c(=O)[nH]1 (stereo unspecified) | 90 °C
26 | CC(c1ccccc1)N1c2ccccc2Oc2ccccc21 (stereo unspecified) | 100 °C
27 | CCCOc1ccc(S(=O)(=O)N2CCN(C)CC2)cc1-c1cc2c([nH]1)c(=O)n(C)c(=O)n2CCC | 198 °C
28 | Nc1nc(-c2ccccc2)nc2nc(-c3ccco3)nn12 | > 300 °C
29 | COc1cc(C(=O)OC2CC3C(=O)NC4(C(=O)NS(=O)(=O)C5CC5)CC4C=CCCCCCC(NC(=O)OC(C)(C)C)C(=O)N3C2)n(OC)n1 (stereo unspecified) | 149 to 151 °C
30 | O=C(Oc1cc(OC(=O)c2ccccc2)c(C(=O)C=Cc2ccc(O)cc2)c(OC(=O)c2ccccc2)c1)c1ccccc1 | 198 to 200 °C
31 | CN(C)C=Nc1ncc[nH]1 | 146 to 147 °C
32 | CSCCC(NCc1cc(Br)cc(Br)c1N)C(=O)O (stereo unspecified) | 212 °C
33 | c1cc(N=C2SCC3Cc4sccc4CN23)c2ccncc2c1 (racemic) | 198 °C
34 | CCC(Cc1ccc(S(=O)(=O)c2ccc(S(N)(=O)=O)s2)cc1)N(C)C (stereo unspecified) | 169 to 172 °C
35 | CC(C)(CO)Cc1cc(C(C)(C)C)c(O)c(C(C)(C)C)c1 | 84 to 86 °C
36 | O=C(CCc1ccc2cccc(O)c2n1)NO | 165 to 167 °C
37 | C=C[C@@H](C[C@H](O)[C@H](CC1CCCCC1)NC(=O)[C@H](Cc1c[nH]cn1)NC(=O)[C@@H](CC(=O)N1CCC(C(=O)O)CC1)Cc1ccccc1)C(C)C | 169 °C
38 | N#Cc1c(-c2cccc(CN)c2)cc(-c2ccccc2O)nc1NC(=O)c1cccs1 | 203 to 205 °C
39 | O=C1C(=O)N2CCOc3c(Cl)c(Cl)cc1c32 | 237 to 238 °C
40 | CC1(C)C=C(c2ccccn2)c2cc(F)c(F)cc2OC1 | 86 °C
41 | CCCCCCCCCCCCCCCC(=O)C(O)(O)C(=O)OC(C)(C)C | 49 to 51 °C
42 | CS(=O)(=O)c1ccc(C2=C(Br)C(=O)C3(CCCCC3)O2)cc1 | 163 to 164 °C
43 | CCCN(CCC)C(=O)Cc1ccccc1Nc1c(Cl)cccc1Cl | 84 to 86 °C
44 | Cn1cc(-c2cc3cccnc3[nH]2)c2ccc(C(=O)NCCC(N)=O)cc21 | 277 to 280 °C
45 | O=C(O)c1ccc(F)c2c1OCC=C2 | 187 to 189 °C
46 | COc1cc(CSC(=S)N(C)C)nc(N)n1 | 118 to 120 °C
47 | O=C(N1c2ccccc2C(Br)C(Br)c2ccccc21)C(F)(F)F (stereo unspecified) | 186 to 189 °C
48 | CC(C)(C)NC(=O)Nc1ccc2oc3c(c2c1)CCCC3 | 310 to 312 °C

Further lines, results first:

Row | melting point | SMILES
49 | 82 to 83 °C | CCOC(=O)[C@H]1CC(OC(C)=O)CN1S(=O)(=O)c1ccc(C)cc1 (stereo partly specified)
50 | 268 to 271 °C | CNc1nc(-c2ccc(SC)cc2)n(-c2ccc(C)cc2)c(=O)c1C#N
51 | 145 °C | O=C(COc1cc(-c2ccccc2F)nc2ccccc12)N1CCOCC1
52 | 159 to 161 °C | Cc1ccc(C2c3c(C)c(N4CCN(C(=O)c5ccc(C#N)cc5)CC4)c(C)c(C)c3OC2(C)C)cc1 (stereo unspecified)
53 | 158 to 160 °C | Cc1oc(-c2ccc(F)cc2)nc1CCOc1ccc(CN(O)C(N)=O)cc1
54 | 125 to 127 °C | CCC(c1cc2c(-c3ccc(C(F)(F)F)n(C)c3=O)c(F)cc(Cl)c2o1)S(C)=O (stereo unspecified)
55 | 81 to 83 °C | CCOC(=O)c1cnn(-c2ccc(Cl)cc2Cl)c1C(F)(F)F
56 | 225 to 226 °C | O=C(c1ccc(Nc2ccnc3cc(C(F)(F)F)ccc23)cc1)N1CC=C(c2ccc(Cl)cc2)CC1
57 | 183 to 185 °C | COc1cc(Br)c2oc(-c3ccc(OC)c(C(F)(F)F)c3)nc2c1
58 | 282 to 285 °C | COc1cccc(C(C)c2ccc(-c3cnn4c(O)ncnc34)cc2)c1 (stereo unspecified)
59 | 141 to 143 °C | Cc1ccc(S(=O)(=O)ON=C2CC(c3ccccc3)Oc3ccccc32)cc1 (stereo unspecified)
60 | 137 °C | CCn1cc(CN(C(=O)C2CCCc3cc(OCCO)ccc32)c2ccc(C(C)C)cc2)cn1 (stereo unspecified)
61 | 63 to 65 °C | O=C(c1ccc(Cl)cc1)c1ccc(CSC(F)(F)F)cc1
62 | 142 °C | CCOC(=O)OCC(F)(F)Cn1nc(C)c(-c2ccc3c(c2)NC(=O)CO3)c1-c1ccc(F)cc1
63 | 121 °C | CCOC(=O)C1=C(N2CCCC2)N=C(C)C(C(=O)OCC)C1c1cccc2ccccc12 (stereo unspecified)
64 | 129 to 131 °C | CCN1c2ncc(CCc3cccc(N)c3)cc2C(=O)N(C)c2cccnc21
65 | 100 to 103 °C | Cc1ccc2c(c1)C(=O)c1ccccc1CO2
66 | 200 to 202 °C | CCOCc1nc2c(N)nc3cc(N4CCCC4=O)ccc3c2n1CC(C)(C)O
67 | 151 to 159 °C | O=C(O)Cn1cc(Cc2cccc(OCc3ccc4ccccc4n3)c2)c2ccccc21
68 | 143 to 144 °C | Cc1oc(-c2ccccc2)nc1COc1ccc(CN(O)C(N)=O)cc1F
69 | 145 to 150 °C | Nc1nc2ccccc2c2c1nc(-c1ccccc1)n2CCCCNC(=O)Nc1ccc(F)cc1
70 | 219 to 220 °C | CCc1nc2c(N)nc3cc(OCC(=O)N4CCOCC4)ccc3c2n1CC(C)C
71 | 198 to 200 °C | CSC1c2ccccc2COc2ccc(C(=O)O)cc21 (stereo unspecified)
